Columns and labels:
Cytochrome_P450 = test: qRT-PCR expression of induced resistance gene in pine tree callus; format: cell-based; conditions: 200 µg/mℓ, 24 hours
Procedure: For in vitro analysis of induced resistance, the expression of PR genes and other plant defense-related genes was determined, which are evolved in various defense mechanisms including induced resistance. The primers of sixteen induced resistance-related genes of pine tree used in this invention were listed in the below and elongation factor_1 alpha were used as a reference gene. […] The primer list of defense resistance-related genes
After the treatment with 200 µg / mℓ of candidates of the selected induced resistance material, expression of the induced resistance-related gene in pine callus was determined by qRT-PCR using the primer pairs of defense resistance-related genes in Table 4. As a candidate group of an induced resistance material in pine tree, acibenzolar-S-methyl (ASM), TDL (Tiadinil), ITL (Isotianil), PBZ (Probenzole), AZO (Azoxystrobin), VMA (Validamycin A), MeJA (Methyl jasmonate), BABA (DL-3-aminobutyric acid), 2,3-BDO (2,3-Butanediol), GABA (r-Aminobutyric acid), glucan (Glucan), ER (Ergosterol), and AZA (Azelaic acid) were used. For the in vitro analysis of the expression of induced resistance gene in pine callus, the selected induced resistance materials were applied with 500 µℓ of LM liquid medium on a surface of pine tree callus (100 mg) in 12-well microplate to give final concentration of 200 µg/mℓ. Then, the callus surface was sufficiently reacted for 24 hours with the candidate of pine tree induced resistance material by shaking at 50 rpm in a 25 °C shaking incubator under dark condition. RNAs were extracted from the callus after completion of the reaction with an induced resistance material, followed by synthesis of cDNAs. Then, by carrying out qRT-PCR, the expression of induced resistance genes was determined.
Thus, the following tests were carried out using acibenzolar-S-methyl only. Expression of the induced resistance genes at different culture time after the chemical treatment was examined. For the in vitro assay, LM medium containing pine tree callus was treated with acibenzolar-S-methyl at concentration of 200 µg / mℓ, followed by reaction for 1 day, 7 days, or 14 days in a 25°C shaking incubator under dark condition. RNAs were extracted from the callus after the reaction followed by synthesis of cDNAs. Then, by carrying out qRT-PCR, the expression of the induced resistance genes was determined. Depending on reaction time after the treatment, i.e., after 1 day, 7 days, or 14 days, the expression of the obtained induced resistance genes was examined. […]
For the surface treatment (spraying treatment) of pine tree callus, 100 mg of the pine tree callus were dunked in 500 µℓ LM liquid medium and 500 µℓ of 400 µg/mℓ acibenzolar-S-methyl were sprayed (i.e., sprayed 5 times, 100 µℓ for each spraying, 200 µg/mℓ) on the callus surface. Then, the pine callus sprayed with acibenzolar-S-methyl was reacted for 24 hours by shaking at 50 rpm in a 25°C shaking incubator under dark condition. After the completion of the 24-hour reaction, RNAs were extracted from the callus followed by synthesis of cDNAs. Then, by carrying out qRT-PCR, expression of the induced resistance gene was determined.

[1] = tested on: Bursaphelenchus xylophilus; test: Occurrence of pine wilt disease after trunk injection of induced resistance candidate materials, in vivo test in young red pine trees; conditions: red pine tree (Pinus densiflora), 30 days after inoculation; for Occurrence rate of pine wilt disease: Number of pine trees showing wilt symptoms / Number of pine trees used for the test: trunk injection 100 µℓ per tree; for Number of pine trees showing wilt symptoms only at growing points of a stem: trunk injection
Procedure: By using the 15 types of an induced resistance elicitors which have been known to induce the plant resistance against various diseases as candidates, their controlling effect against pine wilt disease was examined. The control efficacy of candidates against pine wilt disease was analyzed according to an in vivo test using red pine tree (Pinus densiflora) which was 2-year old young pine trees (diameter of 5.5 mm or so, and height of about 35 mm).
As a candidate group of an induced resistance material, two kinds of acibenzolar-S-methyl (ASM), TDL (Tiadinil), ITL (Isotianil), PBZ (Probenzole), AZO (Azoxystrobin), VMA (Validamycin A), MeJA (Methyl jasmonate), BABA (DL-3-aminobutyric acid), 2,3-BDO (2,3-Butanediol), SA (salicyclic acid), GABA (r-Aminobutyric acid), glucan (Glucan), ER (Ergosterol), and AZA (Azelaic acid) were used. Only the use of acibenzolar-S-methyl is according to the invention. Injection of the chemicals was carried out by trunk injection method, i.e., at an angle of 45°, a borehole was created by using an electric drill with thickness of 1.5 mm on a pine stem part that is 5 to 10 cm above the soil surface, a tip (200 µℓ) was inserted to the hole, and, after dissolving the candidate material at concentration level of 200, 20, or 2 µg/mℓ in each solvent, the solution was injected in an amount of 100 µℓ per pine tree. After the injection of the chemical agent, the end part of the tip was sealed with parafilm.
The pine tree wilt nematodes (Bursaphelenchus xylophilus, National Institute of Forest Science (NIFoS), South Korea) was incubated at 25°C by feeding them with Botrytis cinerea, which have been cultured on a potato dextrose agar (PDA) medium, and after one week incubation, they were collected by Baermann funnel method and were adjusted to the level of 20,000 worms/mℓ by examining the number of the worms under an optical microscope. One week after the chemical treatment, the inoculation of the pine tree wilt nematodes was carried out by tree barking inoculation of 100 µℓ, i.e., 2,000 worms, per tree, and the result was determined 30 days after the inoculation. […] [Table 1] Occurrence rate of pine wilt disease in candidate group of induced resistance materials

## O=C(O)CCCCCCCC(=O)O [AZA, Azelaic acid]
Cytochrome_P450
  Expression of induced resistance gene, Cytochrome_P450: 1.05
[1]; 2 µg/mℓ
  Occurrence rate of pine wilt disease: Number of pine trees showing wilt symptoms / Number of pine trees used for the test: 2/3
[1]; 20 µg/mℓ
  Occurrence rate of pine wilt disease: Number of pine trees showing wilt symptoms / Number of pine trees used for the test: 2/3
  Number of pine trees showing wilt symptoms only at growing points of a stem: 1
[1]; 200 µg/mℓ
  Occurrence rate of pine wilt disease: Number of pine trees showing wilt symptoms / Number of pine trees used for the test: 2/3
  Number of pine trees showing wilt symptoms only at growing points of a stem: 2

— patent EP3685668B1, “COMPOSITION COMPRISING ACIBENZOLAR-S-METHYL AS EFFECTIVE INGREDIENT FOR CONTROLLING BURSAPHELENCHUS XYLOPHILUS DISEASE AND METHOD FOR CONTROLLING BURSAPHELENCHUS XYLOPHILUS USING SAME” (Industry Foundation of Chonnam National University, priority 2017, dated 2019)
